Results published in patent publication US20210330611A1, “THERAPY FOR NEUROLOGICAL DISEASES/DISORDERS” (priority 2020, published 2021).
Read-outs that look alike come from different tables or passages of the source.

What was measured:
[1] = test system: fibrin-induced microglia activation; experiment: Image-based assay of fibrin-induced microglia activation (HTS and dose response); assay type: cell-based, rat; details: for inhibition at 10 µM: Rattus norvegicus, Microglia, read-out: Fibrin % inhibition
[2] = test system: LPS-induced microglia activation; experiment: Image-based assay of LPS-induced microglia activation (HTS and dose response); assay type: cell-based, rat; details: for inhibition at 10 µM: Rattus norvegicus, Microglia, read-out: LPS % inhibition
[3] = test system: fibrin- and LPS-induced microglia activation; experiment: cells; assay type: cell-based, rat
primary rat microglia [4] = experiment: Cell toxicity (dead cells, size <150 μm2) in LPS assay; details: for IC50: read-out: Cell Toxicity IC50 (uM) [LPS assay]
primary rat microglia [5] = experiment: Cell toxicity (dead cells, size <150 μm2) in coated fibrin (cFib) assay; details: for IC50: read-out: Cell Toxicity IC50 (uM) [cFib assay];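 on Fibrin % cell toxicity: share of dead cells sized under 150 µm2 at 10 µM in fibrin-stimulated microglia HTS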
[6] = primary microglia HTS, fibrin stimulation, increased cell size (>800 μm^2) as marker of activation
[7] = primary microglia HTS, LPS stimulation, increased cell size (>800 μm^2) as marker of activation
[8] = HTS of 1907 compounds, quadrant by fibrin and LPS inhibition
[9] = quadrant by fibrin and LPS inhibition in HTS of 1907 compounds
[10] = primary microglia HTS, LPS stimulation, decreased size (<150 μm^2) as marker of toxicity
[11] = primary microglia HTS, fibrin stimulation, decreased size (<150 μm^2) as marker of toxicity
[12] = primary microglia HTS, 10 μM, fibrin-stimulated, cell size >800 μm^2 as marker of activation
[13] = primary microglia HTS, 10 μM, LPS-stimulated, cell size >800 μm^2 as marker of activation
[14] = primary microglia HTS, 10 μM, LPS assay, cell size <150 μm^2 as marker of toxicity
[15] = primary microglia HTS, 10 μM, fibrin assay, cell size <150 μm^2 as marker of toxicity
[16] = primary HTS, 10 μM, fibrin-stimulated primary microglia
[17] = primary HTS, 10 μM, LPS-stimulated primary microglia
[18] = primary HTS, 10 μM, LPS assay, dead cells size <150 μm2
[19] = primary HTS, 10 μM, fibrin assay, dead cells size <150 μm2
[20] = 48 h, primary microglia HTS, LPS stimulation, increased cell size (>800 μm^2) as marker of activation
[21] = primary microglia HTS, fibrin stimulation, activation = cell size >800 μm2
[22] = primary microglia HTS, LPS stimulation, toxicity = cell size <150 μm2
[23] = primary microglia HTS, fibrin stimulation, toxicity = cell size <150 μm2

Which “Fibrin Selectivity” value [1] does the source give for `CCCOc1ccc2[nH]c(NC(=O)OC)nc2c1` [Oxybendazole, reference compound] here?
Its value is 2.

What about the “Fibrin Selectivity (LOG10)” value [1] of the same molecule?
The value was 0.22.

And the IC50 ([1]; Table 1, dose response 0.001-20 μM, triplicates, primary rat microglia, 48 h, read-out: Fibrin IC50)?
Its IC50 is 7 µM.

What about the IC50 ([1]; Table 3, read-out: Fibrin IC50 (uM) (Suppl. Table 7)) of the same molecule?
Its IC50 is 7 µM.

And the IC50 ([1]; dose response, fibrin-induced microglia activation, read-out: Fibrin IC50)?
The IC50 was 7 µM.

And the IC50 ([1]; fibrin-induced microglia activation, dose response, read-out: Fibrin IC50 (uM) (Suppl. Table 7))?
The IC50 was 7 µM.

And the Fibrin % inhibition [1, 6]?
Its Fibrin % inhibition is 78%.

What about the IC50 ([2]; LPS-induced microglia activation, dose response, read-out: LPS IC50 (uM) (Suppl. Table 7)) of the same molecule?
The IC50 was 12 µM.

And the IC50 ([2]; Table 1, dose response 0.001-20 μM, triplicates, primary rat microglia, 48 h, read-out: LPS IC50)?
Its IC50 is 12 µM.

What about the IC50 ([2]; Table 3, read-out: LPS IC50 (uM) (Suppl. Table 7)) of the same molecule?
The IC50 was 12 µM.

And the IC50 ([2]; dose response, LPS-induced microglia activation, read-out: LPS IC50)?
The IC50 was 12 µM.

What about the LPS % inhibition [2, 7] of the same molecule?
Its LPS % inhibition is 15%.

And the Hit ([3]; HTS hit classification)?
Its Hit is “HIT (Hits were defined as molecules that exhibited greater than 50% inhibition of either fibrin or LPS activation)”.

And the “Quadrant (FIG. 5b)” value [3, 8]?
The value was “Q3”.

And the “Quadrant (FIG. 5b)” value ([3]; Table 1, screen at 10 μM)?
The value was “Q3”.

And the “Cherry-picked Hit (Suppl. Table 7)” value ([3]; Table 3)?
The value was “HIT (Hits were defined as molecules that exhibited greater than 50% inhibition of either fibrin or LPS activation)”.

And the “Quadrant (FIG. 5b)” value ([3]; Table 3, screen at 10 μM)?
Its value is “Q3”.

What about the “Cherry-picked Hit (Suppl. Table 7)” value ([3]; hit classification in microglia HTS) of the same molecule?
The value was “HIT (Hits were defined as molecules that exhibited greater than 50% inhibition of either fibrin or LPS activation)”.

And the “Quadrant (FIG. 5b)” value [3, 9]?
The value was “Q3”.

What about the “LPS % cell toxicity” value (primary rat microglia [4]; [10]) of the same molecule?
Its value is 1%.

And the IC50 (primary rat microglia [4]; LPS assay)?
Its IC50 is over 20 µM.

What about the IC50 (primary rat microglia [4]; Table 3) of the same molecule?
The IC50 was over 20 µM.

And the “Fibrin % cell toxicity” value (primary rat microglia [5]; [11])?
The value was 2%.

What about the IC50 (primary rat microglia [5]; Table 3) of the same molecule?
The IC50 was over 20 µM.

What about the IC50 (primary rat microglia [5]; cFib assay) of the same molecule?
Its IC50 is over 20 µM.

Which inhibition at 10 µM [1, 12] does the source give for `CCN(C(C)=O)c1cccc(-c2ccnc3c(C#N)cnn23)c1` [Zaleplon] here?
The inhibition at 10 µM was 16%.

And the inhibition at 10 µM [2, 13]?
Its inhibition at 10 µM is 13%.

And the “Quadrant (FIG. 5b)” value [3, 8]?
Its value is “Q4”.

What about the “LPS % cell toxicity” value (primary rat microglia [4]; [14]) of the same molecule?
The value was 0%.

What about the “Fibrin % cell toxicity” value (primary rat microglia [5]; [15]) of the same molecule?
Its value is 1%.

Which results are given for `O=C1CCO1` [Beta-propiolactone, Propiolactone]?
Fibrin % inhibition [1, 16]: −12%; LPS % inhibition [2, 17]: 8%; Quadrant (FIG. 5b) ([3]; primary HTS, 10 μM): Q4; LPS % cell toxicity (primary rat microglia [4]; [18]): 0%; Fibrin % cell toxicity (primary rat microglia [5]; [19]): 1%

Which results are given for `CCN(CC)CCNC(=O)c1ccc(NC(C)=O)cc1.Cl`?
Fibrin % inhibition [1, 6]: −11%; LPS % inhibition [2, 7]: 9%; Quadrant (FIG. 5b) [3, 9]: Q4; LPS % cell toxicity (primary rat microglia [4]; [10]): 1%; Fibrin % cell toxicity (primary rat microglia [5]; [11]): 0%

How did the inhibition at 10 µM [1, 6] turn out when `CN(C)CC/C=C1/c2ccccc2COc2ccc(CC(=O)O)cc21` [Olopatadine] was run?
Its inhibition at 10 µM is -42%.

And the inhibition at 10 µM [2, 20]?
The inhibition at 10 µM was -9%.

And the “Quadrant (FIG. 5b)” value [3, 9]?
Its value is “Q4”.

And the “LPS % cell toxicity” value (primary rat microglia [4]; [10])?
Its value is 0%.

And the “Fibrin % cell toxicity” value (primary rat microglia [5]; [11])?
Its value is 1%.

How did the inhibition at 10 µM [1, 6] turn out when `O=C(N/N=C/c1ccc([N+](=O)[O-])o1)c1cc([N+](=O)[O-])cc([N+](=O)[O-])c1O` [Nifursol] was run?
Its inhibition at 10 µM is 47%.

What about the inhibition at 10 µM [2, 20] of the same molecule?
The inhibition at 10 µM was 20%.

And the “Quadrant (FIG. 5b)” value [3, 9]?
The value was “Q4”.

What about the “LPS % cell toxicity” value (primary rat microglia [4]; [10]) of the same molecule?
The value was 0%.

What about the “Fibrin % cell toxicity” value (primary rat microglia [5]; [11]) of the same molecule?
Its value is 1%.

What does the source list for `C[C@@H]1CC(=O)NN=C1c1ccc(NN=C(C#N)C#N)cc1` [Levosimendan]?
inhibition at 10 µM [1, 21]: 46%; inhibition at 10 µM ([2]; 48 h, primary microglia HTS, LPS stimulation, activation = cell size >800 μm2): 42%; Quadrant (FIG. 5b) [3, 9]: Q4; LPS % cell toxicity (primary rat microglia [4]; [22]): 0%; Fibrin % cell toxicity (primary rat microglia [5]; [23]): 1%

How did the Fibrin % inhibition [1, 12] turn out when `CC1(O)CCC(C(C)(C)O)CC1.O` (centres unmarked) [Terpene Hydrate] was run?
Its Fibrin % inhibition is −6%.

What about the LPS % inhibition [2, 13] of the same molecule?
Its LPS % inhibition is 8%.

And the “Quadrant (FIG. 5b)” value [3, 8]?
Its value is “Q4”.

What about the “LPS % cell toxicity” value (primary rat microglia [4]; [14]) of the same molecule?
The value was 0%.

And the “Fibrin % cell toxicity” value (primary rat microglia [5]; [15])?
Its value is 1%.

`O=[N+]([O-])OCC(CO[N+](=O)[O-])O[N+](=O)[O-]` [Nitroglycerin] was tested. Which inhibition at 10 µM [1, 6] did it give?
The inhibition at 10 µM was 2%.

And the inhibition at 10 µM [2, 20]?
The inhibition at 10 µM was 17%.

What about the “Quadrant (FIG. 5b)” value [3, 9] of the same molecule?
The value was “Q4”.

What about the “LPS % cell toxicity” value (primary rat microglia [4]; [10]) of the same molecule?
The value was 1%.

And the “Fibrin % cell toxicity” value (primary rat microglia [5]; [11])?
The value was 1%.

How did the Fibrin % inhibition [1, 21] turn out when `C[C@](N)(Cc1ccc(O)c(O)c1)C(=O)O` [L-alpha-methyl Dopa, Methyldopa] was run?
The Fibrin % inhibition was 4%.

And the LPS % inhibition ([2]; primary microglia HTS, LPS stimulation, activation = cell size >800 μm2)?
Its LPS % inhibition is 15%.

What about the “Quadrant (FIG. 5b)” value [3, 9] of the same molecule?
Its value is “Q4”.

And the “LPS % cell toxicity” value (primary rat microglia [4]; [22])?
The value was 0%.

What about the “Fibrin % cell toxicity” value (primary rat microglia [5]; [23]) of the same molecule?
The value was 0%.

Which inhibition at 10 µM [1, 12] does the source give for `c1ccc2c(c1)CCCC2C1=NCCN1` (centres unmarked) [Tetryzoline] here?
The inhibition at 10 µM was -29%.

And the inhibition at 10 µM [2, 13]?
The inhibition at 10 µM was 16%.

What about the “Quadrant (FIG. 5b)” value [3, 8] of the same molecule?
The value was “Q4”.

What about the “LPS % cell toxicity” value (primary rat microglia [4]; [14]) of the same molecule?
The value was 0%.

And the “Fibrin % cell toxicity” value (primary rat microglia [5]; [15])?
The value was 0%.

Which results are given for `Oc1c(Br)cc(Br)c2cccnc12` [Broxyquinoline]?
inhibition at 10 µM [1, 16]: -25%; inhibition at 10 µM [2, 17]: 8%; Quadrant (FIG. 5b) ([3]; primary HTS, 10 μM): Q4; LPS % cell toxicity (primary rat microglia [4]; [18]): 0%; Fibrin % cell toxicity (primary rat microglia [5]; [19]): 0%
